According to the NIST ThermoML archive (doi:10.1016/j.jct.2004.11.017):

Test: xn = mol fraction of the nth substance listed
Settings: 101 kPa, Liquid

CC[S+]([O-])CC [diethyl sulfoxide] + O
mass density [kg/m3]
Settings | 298.15 K | 303.15 K | 308.15 K | 313.15 K | 318.15 K
x1 = 0.0997 | 1027.6 | 1024.2 | 1020.7 | 1017.1 | 1013.4
x1 = 0.1996 | 1038.6 | 1034.2 | 1029.8 | 1025.4 | 1020.9
x1 = 0.2517 | 1038.4 | 1033.7 | 1029.6 | 1025 | 1020.5
x1 = 0.2978 | 1037.8 | 1033.3 | 1028.8 | 1024.2 | 1019.6
x1 = 0.3481 | 1035.8 | 1031.4 | 1026.8 | 1022.2 | 1017.6
x1 = 0.3946 | 1034.7 | 1030.2 | 1025.7 | 1021.2 | 1016.6
x1 = 0.4496 | 1031.6 | 1027.2 | 1022.7 | 1018.3 | 1013.8
x1 = 0.5053 | 1029.6 | 1025.1 | 1020.6 | 1016.2 | 1011.7
x1 = 0.5962 | 1026.4 | 1022.1 | 1017.6 | 1013.2 | 1008.7
x1 = 0.6971 | 1021.9 | 1017.5 | 1013.1 | 1008.7 | 1004.3
x1 = 0.8061 | 1018.2 | 1013.9 | 1009.6 | 1005.2 | 1000.8
x1 = 0.8946 | 1015.3 | 1011 | 1006.7 | 1002.3 | 997.9
x1 = 1 | 1010.2 | 1005.8 | 1001.4 | 997 | 992.6
